We go through 5 molecules from patent US12723063B2, “GIPR-agonist compounds” (Eli Lilly and Company, priority 2019, dated 2026).

The term pKi denotes −log10 of the Ki, conventionally taken in molar units.

Each structure is given as a SMILES string. pKi: −log10 of the molar value. *1 amine or outer side, *2 acyl side, *3 side chain or, on linkers, in order; H or OH if unused. Where a SMILES comes first, the peptide text is derived from it. Side-chain parts run from the residue outwards. [ ]: non-standard residue; d: D form. The star is where a group is joined. C20 diacid = O=C(O)CCCCCCCCCCCCCCCCCCC(=O)*; γGlu = O=C(O)[C@H](CCC(=O)[*:2])N[*:1]; AEEA = NCCOCCOCC(=O)O; Aib = CC(C)(N)C(=O)O

This assay deals with T1, human GLP-1R (Homo sapiens, UniProt P43220).
T1 construct: expressed in transfected cells; crude membranes
T1 sequence (P43220 24-463): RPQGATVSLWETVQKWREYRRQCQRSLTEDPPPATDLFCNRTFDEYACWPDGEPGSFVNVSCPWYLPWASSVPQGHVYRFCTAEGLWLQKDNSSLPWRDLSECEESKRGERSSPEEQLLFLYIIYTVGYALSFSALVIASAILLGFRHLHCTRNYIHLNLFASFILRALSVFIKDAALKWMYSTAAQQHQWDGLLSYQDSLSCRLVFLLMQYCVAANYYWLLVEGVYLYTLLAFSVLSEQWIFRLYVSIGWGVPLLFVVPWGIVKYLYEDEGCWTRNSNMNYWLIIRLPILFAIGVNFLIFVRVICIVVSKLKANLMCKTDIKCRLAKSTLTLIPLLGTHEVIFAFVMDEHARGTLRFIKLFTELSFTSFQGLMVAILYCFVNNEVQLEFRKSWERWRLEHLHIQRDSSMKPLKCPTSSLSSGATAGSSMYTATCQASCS
Briefly: [125I]-GLP-1 binding, SPA with WGA beads, 0.1% bacitracin. The settings on record: geometric mean, read-out: hGLP1R Ki. As for the experimental part: Stably transfected cell lines are prepared by subcloning receptor cDNA into a pcDNA3 expression plasmid and transfected into human embryonic kidney (HEK) 293 (hGcgR and hGLP-1R) or Chinese Hamster Ovary (CHO) (hGIPR) cells followed by selection with Geneticin (hGLP-1R and hGIPR) or hygromycin B (hGcgR).
Two methods are used for the preparation of crude cell membranes.
Method 1: Frozen cell pellets are lysed on ice in hypotonic buffer containing 50 mM Tris HCl, pH 7.5, and Roche Complete™ Protease Inhibitors with EDTA. The cell suspension is disrupted using a glass Potter-Elvehjem homogenizer fitted with a Teflon® pestle for 25 strokes. The homogenate is centrifuged at 4° C. at 1100× g for 10 minutes. The supernatant is collected and stored on ice while the pellets are resuspended in homogenization buffer and rehomogenized as described above. The homogenate is centrifuged at 1100× g for 10 minutes. The second supernatant is combined with the first supernatant and centrifuged at 35000× g for 1 hour at 4° C. The resulting membrane pellet is resuspended in homogenization buffer containing protease inhibitors at approximately 1 to 3 mg/mL, quick frozen in liquid nitrogen and stored as aliquots in a −80° C. freezer until use.
Method 2: Frozen cell pellets are lysed on ice in hypotonic buffer containing 50 mM Tris HCl, pH 7.5, 1 mM MgCl2, Roche Complete™ EDTA-free Protease Inhibitors and 25 units/mL DNAse I (Invitrogen). The cell suspension is disrupted using a glass Potter-Elvehjem homogenizer fitted with a Teflon® pestle for 20 to 25 strokes. The homogenate is centrifuged at 4° C. at 1800× g for 15 minutes. The supernatant is collected and stored on ice while the pellets are resuspended in homogenization buffer (without DNAse I) and rehomogenized as described above. The homogenate is centrifuged at 1800× g for 15 minutes. The second supernatant is combined with the first supernatant and centrifuged an additional time at 1800× g for 15 minutes. The overall supernatant is then centrifuged at 25000× g for 30 minutes at 4° C. The resulting membrane pellet is resuspended in homogenization buffer (without DNAse I) containing protease inhibitors at approximately 1 to 3 mg/mL and stored as aliquots in a −80° C. freezer until use.
The binding buffer contains 25 mM HEPES, pH 7.4, 2.5 mM CaCl2), 1 mM MgCl2, 0.1% (w/v) bacitracin, 0.003% (w/v) TWEEN®-20, and Roche Complete™ Protease Inhibitors without EDTA.
Data are analyzed using four-parameter (curve maximum, curve minimum, IC50, Hill slope) nonlinear regression routines (Genedata Screener, version 12.0.4, Genedata AG, Basal, Switzerland). […] Values for Ki are reported as the geometric mean, with error expressed as the standard error of the mean (SEM) and n is equal to the number of independent replicates (determined in assays performed on different days). […] SEM is only calculated when […] or greater. Means are expressed as geometric means with the standard error of the mean (SEM) and the number of replicates (n) indicated in parentheses.
Turning to `CC[C@H](C)[C@H](NC(=O)[C@H](CO)NC(=O)[C@H](Cc1ccc(O)cc1)NC(=O)[C@H](CC(=O)O)NC(=O)[C@H](CO)NC(=O)[C@@H](NC(=O)[C@H](Cc1ccccc1)NC(=O)[C@@H](NC(=O)CNC(=O)[C@H](CCC(=O)O)NC(=O)C(C)(C)NC(=O)[C@@H](N)Cc1ccc(O)cc1)[C@@H](C)O)[C@@H](C)CC)C(=O)N[C@@H](CC(C)C)C(=O)N[C@@H](CC(C)C)C(=O)N[C@@H](CC(=O)O)C(=O)N[C@@H](CCCCN)C(=O)N[C@@H](CCCCNC(=O)COCCOCCNC(=O)COCCOCCNC(=O)CC[C@H](NC(=O)CCCCCCCCCCCCCCCCCCC(=O)O)C(=O)O)C(=O)N[C@@H](C)C(=O)N[C@@H](CCC(N)=O)C(=O)NC(C)(C)C(=O)N[C@@H](CC(=O)O)C(=O)N[C@@H](Cc1ccccc1)C(=O)N[C@H](C(=O)N[C@@H](CC(N)=O)C(=O)N[C@@H](Cc1c[nH]c2ccccc12)C(=O)N[C@@H](CC(C)C)C(=O)N[C@@H](CC(C)C)C(=O)N[C@@H](C)C(=O)N[C@@H](CCC(N)=O)C(=O)NCC(=O)N1CCC[C@H]1C(=O)N[C@@H](CO)C(=O)N[C@@H](CO)C(=O)NCC(=O)N[C@@H](C)C(=O)N1CCC[C@H]1C(=O)N1CCC[C@H]1C(=O)N1CCC[C@H]1C(=O)N[C@@H](CO)C(N)=O)C(C)C` [Example 8] (H-Y[Aib]EGTFISDYSILLDKK([AEEA-AEEA-γGlu-C20 diacid])AQ[Aib]DFVNWLLAQGPSSGAPPPS-NH2), the pKi is 7.42.
Take `CC[C@H](C)[C@H](NC(=O)[C@H](CO)NC(=O)[C@H](Cc1ccc(O)cc1)NC(=O)[C@H](CC(=O)O)NC(=O)[C@H](CO)NC(=O)[C@@H](NC(=O)[C@H](Cc1ccccc1)NC(=O)[C@@H](NC(=O)CNC(=O)[C@H](CCC(=O)O)NC(=O)[C@@H](C)NC(=O)[C@@H](N)Cc1ccc(O)cc1)[C@@H](C)O)[C@@H](C)CC)C(=O)N[C@@H](CC(C)C)C(=O)N[C@@H](CC(C)C)C(=O)N[C@@H](CC(=O)O)C(=O)N[C@@H](CCCCN)C(=O)N[C@@H](CCCCNC(=O)COCCOCCNC(=O)COCCOCCNC(=O)CC[C@H](NC(=O)CCCCCCCCCCCCCCCCCCC(=O)O)C(=O)O)C(=O)N[C@@H](Cc1c[nH]cn1)C(=O)N[C@@H](CCC(N)=O)C(=O)NC(C)(C)C(=O)N[C@@H](CC(=O)O)C(=O)N[C@@H](Cc1ccccc1)C(=O)N[C@H](C(=O)N[C@@H](CC(N)=O)C(=O)N[C@@H](Cc1c[nH]c2ccccc12)C(=O)N[C@@H](CC(C)C)C(=O)N[C@@H](CC(C)C)C(=O)N[C@@H](C)C(=O)N[C@@H](CCC(N)=O)C(=O)NCC(=O)N1CCC[C@H]1C(=O)N[C@@H](CO)C(=O)N[C@@H](CO)C(=O)NCC(=O)N[C@@H](C)C(=O)N1CCC[C@H]1C(=O)N1CCC[C@H]1C(=O)N1CCC[C@H]1C(=O)N[C@@H](CO)C(N)=O)C(C)C` [Example 9] (H-Y[dA]EGTFISDYSILLDKK([AEEA-AEEA-γGlu-C20 diacid])HQ[Aib]DFVNWLLAQGPSSGAPPPS-NH2): the negative logarithm of the Ki (pKi) is 6.77.
Regarding `CC[C@H](C)[C@H](NC(=O)[C@H](CO)NC(=O)[C@H](Cc1ccc(O)cc1)NC(=O)[C@H](CC(=O)O)NC(=O)[C@H](CO)NC(=O)[C@@H](NC(=O)[C@H](Cc1ccccc1)NC(=O)[C@@H](NC(=O)CNC(=O)[C@H](CCC(=O)O)NC(=O)[C@@H](C)NC(=O)[C@@H](N)Cc1ccc(O)cc1)[C@@H](C)O)[C@@H](C)CC)C(=O)N[C@@H](CC(C)C)C(=O)N[C@@H](CC(C)C)C(=O)N[C@@H](CC(=O)O)C(=O)N[C@@H](CCCCN)C(=O)N[C@@H](CCCCNC(=O)COCCOCCNC(=O)COCCOCCNC(=O)CC[C@H](NC(=O)CCCCCCCCCCCCCCCCCCC(=O)O)C(=O)O)C(=O)N[C@@H](Cc1c[nH]cn1)C(=O)N[C@@H](CCC(N)=O)C(=O)N[C@@H](CCC(N)=O)C(=O)N[C@@H](CC(=O)O)C(=O)N[C@@H](Cc1ccccc1)C(=O)N[C@H](C(=O)N[C@@H](CC(N)=O)C(=O)N[C@@H](Cc1c[nH]c2ccccc12)C(=O)N[C@@H](CC(C)C)C(=O)N[C@@H](CC(C)C)C(=O)N[C@@H](C)C(=O)NCC(=O)NCC(=O)N1CCC[C@H]1C(=O)N[C@@H](CO)C(=O)N[C@@H](CO)C(=O)NCC(=O)N[C@@H](C)C(=O)N1CCC[C@H]1C(=O)N1CCC[C@H]1C(=O)N1CCC[C@H]1C(=O)N[C@@H](CO)C(N)=O)C(C)C` [Example 10] (H-Y[dA]EGTFISDYSILLDKK([AEEA-AEEA-γGlu-C20 diacid])HQQDFVNWLLAGGPSSGAPPPS-NH2), the pKi was 7.22.
In the case of `CC[C@H](C)[C@H](NC(=O)[C@H](CO)NC(=O)[C@H](Cc1ccc(O)cc1)NC(=O)[C@H](CC(=O)O)NC(=O)[C@H](CO)NC(=O)[C@@H](NC(=O)[C@H](Cc1ccccc1)NC(=O)[C@@H](NC(=O)CNC(=O)[C@H](CCC(=O)O)NC(=O)[C@@H](C)NC(=O)[C@@H](N)Cc1ccc(O)cc1)[C@@H](C)O)[C@@H](C)CC)C(=O)N[C@@H](CC(C)C)C(=O)N[C@@H](CC(C)C)C(=O)N[C@@H](CC(=O)O)C(=O)N[C@@H](CCCCN)C(=O)N[C@@H](CCCCNC(=O)COCCOCCNC(=O)COCCOCCNC(=O)CC[C@H](NC(=O)CCCCCCCCCCCCCCCCCCC(=O)O)C(=O)O)C(=O)N[C@@H](C)C(=O)N[C@@H](CCC(N)=O)C(=O)N[C@@H](CCC(N)=O)C(=O)N[C@@H](CC(=O)O)C(=O)N[C@@H](Cc1ccccc1)C(=O)N[C@H](C(=O)N[C@@H](CC(N)=O)C(=O)N[C@@H](Cc1c[nH]c2ccccc12)C(=O)N[C@@H](CC(C)C)C(=O)N[C@@H](CC(C)C)C(=O)N[C@@H](C)C(=O)N[C@@H](CCC(N)=O)C(=O)NCC(=O)N1CCC[C@H]1C(=O)N[C@@H](CO)C(=O)N[C@@H](CO)C(=O)NCC(=O)N[C@@H](C)C(=O)N1CCC[C@H]1C(=O)N1CCC[C@H]1C(=O)N1CCC[C@H]1C(=O)N[C@@H](CO)C(N)=O)C(C)C` [Example 11] (H-Y[dA]EGTFISDYSILLDKK([AEEA-AEEA-γGlu-C20 diacid])AQQDFVNWLLAQGPSSGAPPPS-NH2) it was 7.07.
As for `CC[C@H](C)[C@H](NC(=O)[C@H](CO)NC(=O)[C@H](Cc1ccc(O)cc1)NC(=O)[C@H](CC(=O)O)NC(=O)[C@H](CO)NC(=O)[C@@H](NC(=O)[C@H](Cc1ccccc1)NC(=O)[C@@H](NC(=O)CNC(=O)[C@H](CCC(=O)O)NC(=O)[C@@H](C)NC(=O)[C@@H](N)Cc1ccc(O)cc1)[C@@H](C)O)[C@@H](C)CC)C(=O)N[C@@H](CC(C)C)C(=O)N[C@@H](CC(C)C)C(=O)N[C@@H](CC(=O)O)C(=O)N[C@@H](CCCCN)C(=O)N[C@@H](CCCCNC(=O)COCCOCCNC(=O)COCCOCCNC(=O)CC[C@H](NC(=O)CCCCCCCCCCCCCCCCCCC(=O)O)C(=O)O)C(=O)N[C@@H](C)C(=O)N[C@@H](CCC(N)=O)C(=O)N[C@@H](CCC(N)=O)C(=O)N[C@@H](CC(=O)O)C(=O)N[C@@H](Cc1ccccc1)C(=O)N[C@H](C(=O)N[C@@H](CC(N)=O)C(=O)N[C@@H](Cc1c[nH]c2ccccc12)C(=O)N[C@@H](CC(C)C)C(=O)N[C@@H](CC(C)C)C(=O)N[C@@H](C)C(=O)NCC(=O)NCC(=O)N1CCC[C@H]1C(=O)N[C@@H](CO)C(=O)N[C@@H](CO)C(=O)NCC(=O)N[C@@H](C)C(=O)N1CCC[C@H]1C(=O)N1CCC[C@H]1C(=O)N1CCC[C@H]1C(=O)N[C@@H](CO)C(N)=O)C(C)C` [Example 12] (H-Y[dA]EGTFISDYSILLDKK([AEEA-AEEA-γGlu-C20 diacid])AQQDFVNWLLAGGPSSGAPPPS-NH2), the pKi is 7.33.
